Reference: the supplement of paper PMC13380429

What was measured:
[1] = tested on: A549-ACE2 infected with SARS-CoV-2; assay: morphology score (similarity to uninfected cells); higher = more like uninfected cells; conditions: 24 h
HepG2 [2] = assay: drug sensitivity score (DSS) for viability; higher = more toxic; extreme values may be limits of the assay; conditions: 72 h
Caco-2 [3] = assay: as above; conditions: 72 h
U2OS [4] = assay: as above; conditions: 72 h
Vero E6 [5] = assay: as above; conditions: 72 h
Calu-3 [6] = assay: as above; conditions: 72 h
[7] = tested on: A549-ACE2 infected with SARS-CoV-2; assay: SARS-CoV-2 infection rate relative to DMSO; higher = more infection; conditions: 24 h
A549-ACE2 [8] = assay: drug-induced phospholipidosis relative to tamoxifen; higher = more phospholipidosis
HepG2 [9] = assay: cell viability relative to DMSO; higher = less toxic; conditions: 72 h
Caco-2 [10] = assay: as above; conditions: 72 h
U2OS [11] = assay: as above; conditions: 72 h
Vero E6 [12] = assay: as above; conditions: 72 h
Calu-3 [13] = assay: as above; conditions: 72 h
[14] = tested on: A549-ACE2 infected with SARS-CoV-2; assay: cell count relative to DMSO; higher = less toxic; conditions: 24 h
HepG2 [15] = assay: relative viability EC50 (midpoint between 100% and the lowest measured viability); higher = less toxic; conditions: 72 h
Caco-2 [16] = assay: as above; conditions: 72 h
U2OS [17] = assay: as above; conditions: 72 h
Vero E6 [18] = assay: as above; conditions: 72 h
Calu-3 [19] = assay: as above; conditions: 72 h
A549-ACE2 [20] = assay: phospholipidosis EC50; higher = less potent phospholipidosis inducer

COc1ccc2cc1Oc1ccc(cc1)C[C@H]1c3c(cc4c(c3Oc3cc5c(cc3OC)CCN(C)[C@@H]5C2)OCO4)CCN1C [cepharanthine]
Conditions | SARS-CoV-2 infection rate, [7] [%] | cell count, [14] [%] | cell viability, Caco-2 [10] [%] | cell viability, Calu-3 [13] [%] | cell viability, HepG2 [9] [%] | cell viability, U2OS [11] [%] | cell viability, Vero E6 [12] [%] | morphology score, [1]
1 nM | – | – | 93.5 | 105 | 99.5 | 95.7 | 95.7 | –
10 nM | – | – | 102 | 107 | 87.8 | 104 | 98.8 | –
100 nM | – | – | 105 | 99.3 | 95.9 | 97 | 96 | –
0.3 µM | 98 | 104 | – | – | – | – | – | 0.04
1000 nM | – | – | 108 | 96.5 | 87.7 | 97.7 | 88.9 | –
3 µM | 75 | 111 | – | – | – | – | – | 0.53
10 µM | 69 | 122 | – | – | – | – | – | 0.79
10000 nM | – | – | 93.1 | 78.7 | 93.7 | 86.5 | 92.9 | –
30 µM | 27 | 104 | – | – | – | – | – | 0.49

Conditions | drug sensitivity score | relative viability EC50 [µM]
Caco-2 [3] | 0 | –
Caco-2 [16] | – | > 10
Calu-3 [6] | 1.2 | –
Calu-3 [19] | – | > 10
HepG2 [2] | 0 | –
HepG2 [15] | – | > 10
U2OS [4] | 0.3 | –
U2OS [17] | – | > 10
Vero E6 [5] | 0 | –
Vero E6 [18] | – | > 10

drug-induced phospholipidosis [%], A549-ACE2 [8]
Conditions | 0.3 µM | 0.833333 µM | 3.33333 µM | 6.66667 µM | 10 µM | 30 µM
24 h | 9.38 | 2.99 | 21.4 | 34.2 | 49.7 | 34.6
48 h | 6.7 | 5.05 | 19.4 | 29.3 | 35.4 | –
72 h | 6.61 | 3.04 | 15.2 | 24.3 | 32.4 | –

Cc1ncc(NC(=O)c2ccc(CN3CCN(C)CC3)c(C(F)(F)F)c2)cc1Nc1nccc(-c2cccnc2)n1 [flumatinib]
Conditions | SARS-CoV-2 infection rate [%] | cell count [%] | cell viability [%] | morphology score | phospholipidosis EC50 [µM]
A549-ACE2 [20], 24 h | – | – | – | – | 3.17
A549-ACE2 [20], 48 h | – | – | – | – | 4.74
A549-ACE2 [20], 72 h | – | – | – | – | 5.39
Caco-2 [10], 1 nM | – | – | 105 | – | –
Caco-2 [10], 10 nM | – | – | 107 | – | –
Caco-2 [10], 100 nM | – | – | 101 | – | –
Caco-2 [10], 1000 nM | – | – | 95.5 | – | –
Caco-2 [10], 10000 nM | – | – | 83.2 | – | –
Calu-3 [13], 1 nM | – | – | 104 | – | –
Calu-3 [13], 10 nM | – | – | 92.7 | – | –
Calu-3 [13], 100 nM | – | – | 102 | – | –
Calu-3 [13], 1000 nM | – | – | 100 | – | –
Calu-3 [13], 10000 nM | – | – | 93.1 | – | –
HepG2 [9], 1 nM | – | – | 96.4 | – | –
HepG2 [9], 10 nM | – | – | 108 | – | –
HepG2 [9], 100 nM | – | – | 102 | – | –
HepG2 [9], 1000 nM | – | – | 93.5 | – | –
HepG2 [9], 10000 nM | – | – | 39.9 | – | –
Vero E6 [12], 1 nM | – | – | 95.8 | – | –
Vero E6 [12], 10 nM | – | – | 101 | – | –
Vero E6 [12], 100 nM | – | – | 99.3 | – | –
Vero E6 [12], 1000 nM | – | – | 97.4 | – | –
Vero E6 [12], 10000 nM | – | – | 84.3 | – | –
[1], 0.3 µM | – | – | – | 0.25 | –
[1], 3 µM | – | – | – | 0.65 | –
[1], 10 µM | – | – | – | 0.69 | –
[1], 30 µM | – | – | – | 0 | –
[7], 0.3 µM | 96 | – | – | – | –
[7], 3 µM | 59 | – | – | – | –
[7], 10 µM | 45 | – | – | – | –
[7], 30 µM | 19 | – | – | – | –
[14], 0.3 µM | – | 105 | – | – | –
[14], 3 µM | – | 120 | – | – | –
[14], 10 µM | – | 124 | – | – | –
[14], 30 µM | – | 117 | – | – | –

Conditions | drug sensitivity score | relative viability EC50 [µM]
Caco-2 [3] | 0.8 | –
Caco-2 [16] | – | > 10
Calu-3 [6] | 0 | –
Calu-3 [19] | – | > 10
HepG2 [2] | 4.3 | –
HepG2 [15] | – | 2.28
Vero E6 [5] | 0.5 | –
Vero E6 [18] | – | > 10

drug-induced phospholipidosis [%], A549-ACE2 [8]
Conditions | 0.3 µM | 0.833333 µM | 3.33333 µM | 6.66667 µM | 10 µM | 30 µM
24 h | 4.03 | 13.9 | 49.2 | 98.5 | 106 | 5.86
48 h | 3.51 | 7.4 | 29.5 | 74.1 | 89.4 | –
72 h | 4.57 | 8.79 | 24.7 | 66.2 | 84.5 | –

CCN(CC)CCOc1ccc2c(c1)C(=O)c1cc(OCCN(CC)CC)ccc1-2 [tilorone]
Conditions | SARS-CoV-2 infection rate, [7] [%] | cell count, [14] [%] | cell viability, Caco-2 [10] [%] | cell viability, Calu-3 [13] [%] | cell viability, HepG2 [9] [%] | cell viability, U2OS [11] [%] | cell viability, Vero E6 [12] [%] | morphology score, [1]
1 nM | – | – | 102 | 103 | 98.4 | 103 | 106 | –
10 nM | – | – | 102 | 101 | 93.2 | 104 | 104 | –
0.1 µM | 88 | 102 | – | – | – | – | – | 0.26
100 nM | – | – | 97.1 | 95.7 | 91.3 | 100 | 97.5 | –
0.3 µM | 84 | 106 | – | – | – | – | – | 0.37
1 µM | 77 | 102 | – | – | – | – | – | 0.45
1000 nM | – | – | 95 | 96.6 | 96.8 | 95.9 | 100 | –
3 µM | 46 | 108 | – | – | – | – | – | 0.5
10000 nM | – | – | 78.4 | 78.8 | 15.8 | 98.9 | 35.2 | –

Conditions | drug sensitivity score | relative viability EC50 [µM]
Caco-2 [3] | 1.3 | –
Caco-2 [16] | – | > 10
Calu-3 [6] | 1.2 | –
Calu-3 [19] | – | > 10
HepG2 [2] | 5.1 | –
HepG2 [15] | – | 2.87
U2OS [4] | 0 | –
U2OS [17] | – | > 10
Vero E6 [5] | 3.5 | –
Vero E6 [18] | – | 3.19

drug-induced phospholipidosis [%], A549-ACE2 [8]
Conditions | 0.3 µM | 0.833333 µM | 3.33333 µM | 6.66667 µM | 10 µM | 30 µM
24 h | -3.79 | -6.82 | -21.7 | -22.6 | -23.9 | -27.5
48 h | 2.58 | -4.68 | -11.7 | -11.1 | -10 | -8.85
72 h | 3.61 | -1.19 | -2.58 | 0.944 | -0.898 | –
